US20250027072A1, “METHODS AND CO[…] TO ENGINEERED CANNABINOID RECEPTORS” (priority 2021, published 2025)
Where “and” joins values, the source holds several entries; their conditions need not be identical. Equal values may be shown once. Entries after “also recorded” stand apart in the source; their conditions may differ. Read-outs that look alike come from different tables or passages of the source.

Columns and labels:
Type in all cases: cell-based
[1] = target: T1, human Cannabinoid Receptor 1 (CB1R) (Homo sapiens, UniProt P21554); details: for maximal signaling in CB1R dose response: dose-response curves; for EC50 / EC50 at CB1R, synthetic cannabinoid dose response: syn-prepro-Δ89-CB1R, wild type ergosterol strain; for EC50: read-out: EC50 at CB1R, synthetic cannabinoid dose response; for relative fluorescence of the ACEA positive control at CB1R: compounds at 10 nM, 100 μM ACEA control; for signaling at CB1R in terpene screen: terpenes at 100 μM, normalized to 100 μM ACEA; for Normalized Activity at 1 μM, CB1R: PINACA compounds; for Normalized Activity at 1 μm, CB1R: 5-fluoro PB-22 isomers
T1 construct: syn-prepro (synthetic yeast pre-pro secretion leader) (N); expressed in transfected cells; host or cells: Saccharomyces cerevisiae BY4741-derived strain (ste2, sst2, far1 knocked out); Gpa1-Gαi3 chimera

[2] = test system: human Cannabinoid Receptor 1 (CB1R)
[3] = target: human cannabinoid receptor type II (CB2R) (Homo sapiens, UniProt P34972); assay: cell-based; design: Normalized Activity at 1 μM, CB2R; other: PINACA compounds, 1 μM; Normalized Activity at 1 μm, CB2R; other: 5-fluoro PB-22 isomers, 1 μm; other: MFα-CB2R, ST03 sterol strain, pH 5.8; activity against CB2R; other: at 10 nM, dose response; preference at CB2R of ADB-BINACA over AB-PINACA; signaling at CB2R in synthetic cannabinoid screen; fused on or other part: yeast mating factor alpha (MFα) pre-pro leader fused at the N-terminus as a trafficking signal; details: for EC50: MFα-CB2R, ST03 sterol strain, pH 5.8; for Normalized Activity at 1 μM, CB2R: PINACA compounds; for signaling at CB2R in synthetic cannabinoid screen: compounds at 1 μM; for Normalized Activity at 1 μm, CB2R: 5-fluoro PB-22 isomers
human cannabinoid receptor type II (CB2R) (Homo sapiens, UniProt P34972), sequence (P34972 whole entry, the tested form may be a part): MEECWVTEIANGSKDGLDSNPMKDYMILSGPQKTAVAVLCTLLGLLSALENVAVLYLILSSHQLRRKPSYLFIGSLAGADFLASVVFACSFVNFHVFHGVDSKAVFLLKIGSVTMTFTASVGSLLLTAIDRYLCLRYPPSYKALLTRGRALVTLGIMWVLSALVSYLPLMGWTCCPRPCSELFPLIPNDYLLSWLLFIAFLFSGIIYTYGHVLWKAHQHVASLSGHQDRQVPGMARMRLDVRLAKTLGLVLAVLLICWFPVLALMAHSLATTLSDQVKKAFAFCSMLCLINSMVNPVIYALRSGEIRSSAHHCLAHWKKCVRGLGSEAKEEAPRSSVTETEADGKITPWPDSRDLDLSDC
Procedure: (§1) To efficiently transduce signals from the human machinery to the yeast pathway, the yeast 5 C-terminal residues of the G-alpha gene GPA1 were replaced with the sequence of the Gαi3 human G-alpha variant as previously described (Brown et al. 2000). ZsGreen1 was used to report on the activity of the pathway, integrating it into the genome in place of the pheromone-inducible Fig1 gene (FIG. 14A).
(§2) Yeast colonies were picked and grown overnight to saturation in pH 5.8 SD-His media in a 2.2 mL deep well plate (Axygen) grown in a plate-shaking incubator (30° C., 1000 rpm, 3 mm orbital). In the morning cultures were diluted 1:10 or 1:25 in SD-His media buffered to pH 7.1 with 100 mM MOPSO (unless otherwise specified). Ligands were added to the culture and incubated with shaking for 8 hours. Cells were then washed three times with ice-cold Tris buffer (pH 7) and diluted 1:20 for cytometry. All cytometry was performed on a Sony SA3800 spectral analyzer. Each sample was tested for 10,000 events, and read at a rate of 1,000 events per second. All assays as reported here were filtered only for singlet populations.

[4] = test system: human cannabinoid receptor type II (CB2R); assay: cell-based; details: for receptor bias CB2R versus CB1R: dual biosensor screen at 1 μM
Procedure: as §1, §2

[5] = read-out: EC50 at CB2R, dose response

## CCCCC/C=C\C/C=C\C/C=C\C/C=C\CCCC(=O)NCCCl [ACEA]
[1]
  EC50, dose response with CB1R: low μM range
[2]
  drop in sensitivity of Δ89 constructs compared to full-length counterparts: 3.6-3.8 fold and 3.8 fold

## CCC(C)(NC(=O)c1nn(Cc2ccc(F)cc2)c2ccccc12)C(N)=O (single isomer, unassigned; isomer 2) [AB-FUBINACA isomer 2]
[1]
  maximal signaling in CB1R dose response: lower response
  EC50: 0.23 nM

## CC(C)[C@H](NC(=O)c1nn(Cc2ccc(F)cc2)c2ccccc12)C(N)=O [AB-FUBINACA]
[1]
  relative fluorescence of the ACEA positive control at CB1R: strong signaling
  maximal signaling in CB1R dose response: high maximal signaling
  EC50: 0.66 nM
[1]; compounds at 1 μM
  signaling at CB1R in synthetic cannabinoid screen relative to 100 μM ACEA positive control: maximal fluorescence

## C=C1CCC[C@]2(C)CC[C@@H](C(C)(C)O)C[C@@H]12 [β-Eudesmol]
[1]; 10 μM, dose response
  signaling at CB1R at lower concentration: showed signaling
[1]
  signaling at CB1R in terpene screen: activate CB1R

## O=C(Oc1ccnc2ccccc12)c1cn(CCCCCF)c2ccccc12 [5-fluoro PB-22 4-hydroxyquinoline isomer]
[2]
  factor by which CB1 is favored over CB2: ~3

## CC(C)c1c(O)ccc2c1CC[C@H]1C(C)(C)CCC[C@]21C [Totarol]
[3]; EC50 at CB2R, dose response
  EC50: 485 nM
[3]; at 10 nM, dose response
  activity against CB2R: active

## CCCCCn1nc(C(=O)NC(C)(C(N)=O)C(C)C)c2ccccc21 (stereo not shown)
[1]
  Normalized Activity at 1 μM, CB1R: 0.810
[3]
  Normalized Activity at 1 μM, CB2R: 0.303

## CCCCCn1nc(C(=O)NC(C(N)=O)C(C)(C)C)c2ccccc21 (stereo not shown) [ADB-PINACA]
[1]
  relative fluorescence of the ACEA positive control at CB1R: strong signaling
  EC50 at CB1R, synthetic cannabinoid dose response: low nanomolar range
  EC50: 0.09 nM
[1]; compounds at 1 μM
  signaling at CB1R in synthetic cannabinoid screen relative to 100 μM ACEA positive control: maximal fluorescence
[3]
  signaling at CB2R in synthetic cannabinoid screen: high activity

## O=C(Oc1ccc2ncccc2c1)c1cn(CCCCCF)c2ccccc12
[1]
  Normalized Activity at 1 μm, CB1R: 0.500
[3]
  Normalized Activity at 1 μm, CB2R: 0.141

## O=C(Oc1cccc2ccncc12)c1cn(CCCCCF)c2ccccc12
[3]
  Normalized Activity at 1 μm, CB2R: 0.771

## CCC(F)CCn1nc(C(=O)NC(C(N)=O)C(C)C)c2ccccc21 (stereo not shown)
[1]
  Normalized Activity at 1 μM, CB1R: 0.700
[3]
  Normalized Activity at 1 μM, CB2R: 0.310

## CC1(C)C(C(=O)c2cn(CC3CCOCC3)c3ccccc23)C1(C)C [A-834735]
[4]
  receptor bias CB2R versus CB1R: CB2R-biased
[3]; [5]
  EC50: 7.42 nM

## Cc1c(C(=O)c2ccccc2)c(N)c(-c2ccccc2)n1Cc1ccc(Cl)cc1 [URB447]
[1]; compounds at 1 μM
  signaling at CB1R in synthetic cannabinoid screen relative to 100 μM ACEA positive control: at most approximately half the relative fluorescence of the ACEA positive control

## O=C(Oc1cncc2ccccc12)c1cn(CCCCCF)c2ccccc12
[1]
  Normalized Activity at 1 μm, CB1R: 0.570

## CCCC(NC(=O)c1nn(Cc2ccc(F)cc2)c2ccccc12)C(N)=O (single isomer, unassigned; isomer 1) [AB-FUBINACA isomer 1]
[1]; compounds at 1 μM
  signaling at CB1R in synthetic cannabinoid screen relative to 100 μM ACEA positive control: greatest activity of all the isomers
[1]
  maximal signaling in CB1R dose response: high maximal signaling
  EC50: 0.01 nM

## COCCn1c(C)c(C)s/c1=N\C(=O)C1C(C)(C)C1(C)C [A-836339, 2,2,3,3-Tetramethyl-cyclopropanecarboxylic Acid [3-(2-Methoxy-ethyl)-4,5-dimethyl-3H-thiazol-(2Z)-ylidene]-amide]
[3]; [5]
  EC50: 16.3 nM

## COc1ccc(C(=O)c2c(C)n(CCN3CCOCC3)c3cc(Br)ccc23)cc1 [WIN54,461]
[1]; compounds at 1 μM
  signaling at CB1R in synthetic cannabinoid screen relative to 100 μM ACEA positive control: at most approximately half the relative fluorescence of the ACEA positive control

## O=C(Oc1cccc2cnccc12)c1cn(CCCCCF)c2ccccc12 [5-fluoro PB-22 5-hydroxyisoquinoline isomer]
[4]; normalized activity at 1 μM, Table 3
  fold by which CB2 is favored over CB1: roughly 2 fold
[3]; [5]
  EC50: 216 nM

## CCCCCn1nc(C(=O)N[C@H](C(N)=O)C(C)C)c2ccccc21 [drawing 1]
[1]
  Normalized Activity at 1 μM, CB1R: 0.550

## O=C(Oc1ccc2cccnc2c1)c1cn(CCCCCF)c2ccccc12
[1]
  Normalized Activity at 1 μm, CB1R: 0.550

## O=C(Oc1ccc2cnccc2c1)c1cn(CCCCCF)c2ccccc12
[3]
  Normalized Activity at 1 μm, CB2R: 0.331

## CCC(C(N)=O)N(C)C(=O)c1nn(Cc2ccc(F)cc2)c2ccccc12 (single isomer, unassigned; isomer 5) [AB-FUBINACA isomer 5]
[1]; compounds at 1 μM
  signaling at CB1R in synthetic cannabinoid screen relative to 100 μM ACEA positive control: least GPCR activation
[1]
  maximal signaling in CB1R dose response: lower response
  EC50: 15.9 nM

## CCCCCCC(C)(C)c1cc(O)c2c(c1)OC(C)(C)[C@H]1CC=C(CO)C[C@H]21 [HU-211]
[1]
  signaling at CB1R in synthetic cannabinoid screen relative to 100 μM ACEA positive control: at most approximately half the relative fluorescence of the ACEA positive control

## O=C(Oc1ccc2ccncc2c1)c1cn(CCCCCF)c2ccccc12
[3]
  Normalized Activity at 1 μm, CB2R: 0.339

## CN1CCCCC1Cn1cc(C(=O)c2cc([N+](=O)[O-])ccc2I)c2ccccc21 (stereo not shown) [AM-1241]
[1]
  signaling at CB1R in synthetic cannabinoid screen relative to 100 μM ACEA positive control: at most approximately half the relative fluorescence of the ACEA positive control

## CCCC(F)Cn1nc(C(=O)Oc2cccc3cccnc23)c2ccccc21 (stereo not shown)
[1]
  Normalized Activity at 1 μm, CB1R: 0.531
[3]
  Normalized Activity at 1 μm, CB2R: 0.582

## CCCCCn1nc(C(=O)N[C@H](C(N)=O)[C@@H](C)CC)c2ccccc21 (single isomer, unassigned)
[1]
  Normalized Activity at 1 μM, CB1R: 0.753
[3]
  Normalized Activity at 1 μM, CB2R: 0.568

## CC(C)(C)C(NC(=O)c1c2ccccc2nn1CCCCCF)C(N)=O (single isomer, unassigned; isomer 2) [5-fluoro ADB-PINACA isomer 2]
[1]
  EC50 at CB1R, synthetic cannabinoid dose response: low nanomolar range
  EC50: 2.25 nM

## O=C(Oc1ccnc2ccccc12)c1cn(CCCCCF)c2ccccc12 [drawing 16]
[1]
  Normalized Activity at 1 μm, CB1R: 0.829
[3]
  Normalized Activity at 1 μm, CB2R: 0.247

## CCCCCn1nc(C(=O)NC(C(N)=O)C(C)(C)C)c2ccccc21 (stereo not shown) [drawing 2]
[1]
  Normalized Activity at 1 μM, CB1R: 0.590
[3]
  Normalized Activity at 1 μM, CB2R: 0.700

## O=C(Oc1cnc2ccccc2c1)c1cn(CCCCCF)c2ccccc12
[1]
  Normalized Activity at 1 μm, CB1R: 0.530

## CC(C)[C@H](NC(=O)c1cn(CC2CCCCC2)c2ccccc12)C(N)=O [AB-CHMICA]
[1]; compounds at 1 μM
  signaling at CB1R in synthetic cannabinoid screen relative to 100 μM ACEA positive control: CB1R agonists
[3]
  signaling at CB2R in synthetic cannabinoid screen: poor CB2R signalers

## CCCC(F)Cn1nc(C(=O)NC(C(N)=O)C(C)C)c2ccccc21 (stereo not shown)
[1]
  Normalized Activity at 1 μM, CB1R: 0.632
[3]
  Normalized Activity at 1 μM, CB2R: 0.340

## CCN(CC)CCN1C(=O)CN=C(c2ccccc2F)c2cc(Cl)ccc21 [Flurazepam]
[1]; compounds at 1 μM
  signaling at CB1R in synthetic cannabinoid screen relative to 100 μM ACEA positive control: did not show strong signal; also recorded: does not strongly activate the CB1R

## CCC(F)CCn1cc(C(=O)C2C(C)(C)C2(C)C)c2ccccc21 (single isomer, unassigned) [XLR11 N-(3-fluoropentyl) isomer]
[4]
  receptor bias CB2R versus CB1R: CB2R-biased

## CC(C)(C)C(NC(=O)c1cn(Cc2ccccc2)c2ccccc12)C(N)=O (stereo not shown)
[1]
  Normalized Activity at 1 μM, CB1R: 0.842
[3]
  Normalized Activity at 1 μM, CB2R: 0.255

## CC(C)[C@H](NC(=O)c1cn(Cc2ccccc2)c2ccccc12)C(N)=O [AB-BICA]
[1]; compounds at 1 μM
  signaling at CB1R in synthetic cannabinoid screen relative to 100 μM ACEA positive control: CB1R agonists
[3]
  signaling at CB2R in synthetic cannabinoid screen: poor CB2R signalers

## CC1(C)C(C(=O)c2cn(CCN3CCOCC3)c3ccccc23)C1(C)C [A-796260]
[3]
  signaling at CB2R in synthetic cannabinoid screen: among the top CB2R targets

## CCCCCn1nc(C(=O)N[C@@H](CCCC)C(N)=O)c2ccccc21
[1]
  Normalized Activity at 1 μM, CB1R: 0.735
[3]
  Normalized Activity at 1 μM, CB2R: 0.460

## CC(C)=CCCC(C)CCO (stereo not drawn) [(+)-β-Citronellol]
[1]
  signaling at CB1R in terpene screen: activate CB1R

## CCCCCn1cc(-c2nc(CN(CC)CC)cs2)c2ccccc21 [PTI-1]
[1]; compounds at 1 μM
  signaling at CB1R in synthetic cannabinoid screen relative to 100 μM ACEA positive control: CB1R agonists
[3]
  signaling at CB2R in synthetic cannabinoid screen: poor CB2R signalers

## CCCCCn1c(O)c(N=NC(=O)c2ccccc2)c2ccc(OC)cc21 [MDA 77]
[1]; compounds at 1 μM
  signaling at CB1R in synthetic cannabinoid screen relative to 100 μM ACEA positive control: at most approximately half the relative fluorescence of the ACEA positive control
